Assay type in all cases: cell-based
Experiment [1] deals with IFN-g secretion from T cells in human whole blood. Conditions: read-out: WB (IFNg) IC50 (nM, Avg).
Another experiment concerns the target hKv1.3 (Homo sapiens, UniProt P22001). In words: cell-based. To be noted: Kv1.3 (IWQ) IC50 (nM, Avg).
Experiment [2] deals with IL-2 secretion from T cells in human whole blood. Conditions: read-out: WB (IL-2) IC50 (nM, Avg).

Chain of hKv1.3 (P22001 whole entry): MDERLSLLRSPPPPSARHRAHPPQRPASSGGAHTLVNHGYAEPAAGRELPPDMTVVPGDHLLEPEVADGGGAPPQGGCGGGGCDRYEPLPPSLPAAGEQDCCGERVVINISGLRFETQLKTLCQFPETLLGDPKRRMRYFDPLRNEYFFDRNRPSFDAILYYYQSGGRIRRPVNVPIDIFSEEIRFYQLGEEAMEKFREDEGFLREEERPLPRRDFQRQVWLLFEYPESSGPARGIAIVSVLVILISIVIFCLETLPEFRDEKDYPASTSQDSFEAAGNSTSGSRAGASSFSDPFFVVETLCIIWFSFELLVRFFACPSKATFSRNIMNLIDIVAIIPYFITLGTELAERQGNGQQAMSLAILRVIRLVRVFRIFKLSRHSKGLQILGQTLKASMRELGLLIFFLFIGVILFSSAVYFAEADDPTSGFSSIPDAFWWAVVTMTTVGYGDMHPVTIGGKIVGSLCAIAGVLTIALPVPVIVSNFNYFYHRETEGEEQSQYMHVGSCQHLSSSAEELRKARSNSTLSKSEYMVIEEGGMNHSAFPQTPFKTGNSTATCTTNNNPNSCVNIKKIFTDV

As usually defined, the IC50 is the concentration that gives 50% inhibition. Turning to `CC[C@H](C)[C@@H]1NC(=O)[C@@H](NC(=O)[C@H](CO)NC(=O)[C@@H](N)CCCNC(=N)N)CSSC[C@@H](C(N)=O)NC(=O)[C@H]([C@@H](C)O)NC(=O)CNC(=O)[C@@H]2CSSC[C@@H]3NC(=O)[C@H](CCCCN)NC(=O)[C@H](Cc4ccccc4)NC(=O)[C@H](C)NC(=O)[C@H]([C@@H](C)O)NC(=O)[C@H](CSSC[C@H](NC(=O)[C@H](Cc4ccccc4)NC(=O)[C@H](CO)NC(=O)[C@H](CC(C)C)NC(=O)[C@H](CCCNC(=N)N)NC(=O)[C@H](Cc4ccc(O)cc4)NC(=O)[C@H](CCCCN)NC(=O)[C@H](CCSC)NC(=O)[C@H](CO)NC(=O)[C@H](Cc4c[nH]cn4)NC(=O)[C@H](CCCCN)NC3=O)C(=O)N[C@@H](CCCNC(=N)N)C(=O)N[C@@H](CCC(=O)O)C(=O)N[C@@H]([C@@H](C)O)C(=O)N2)NC(=O)[C@H](CCCNC(=N)N)NC(=O)[C@H](CO)NC(=O)[C@H](CCCCN)NC(=O)[C@@H]2CCCN2C(=O)[C@H]([C@@H](C)CC)NC(=O)[C@H]([C@@H](C)O)NC(=O)[C@H](CC(=O)O)NC1=O` [[Lys16, Glu30]ShK-amide], the results for the IC50 (in experiment [1]; against hKv1.3; in experiment [2]) were 0.144 nM, 0.028 nM and 0.105 nM, respectively.
Taken in the same sequence, the figures for `CC[C@H](C)[C@@H]1NC(=O)[C@@H](NC(=O)[C@H](CO)NC(=O)[C@@H](N)CCCNC(=N)N)CSSC[C@@H](C(=O)O)NC(=O)[C@H]([C@@H](C)O)NC(=O)CNC(=O)[C@@H]2CSSC[C@@H]3NC(=O)[C@H](CCCCN)NC(=O)[C@H](Cc4ccccc4)NC(=O)[C@H](C)NC(=O)[C@H]([C@@H](C)O)NC(=O)[C@H](CSSC[C@H](NC(=O)[C@H](Cc4ccccc4)NC(=O)[C@H](CO)NC(=O)[C@H](CC(C)C)NC(=O)[C@H](CCCNC(=N)N)NC(=O)[C@H](Cc4ccc(O)cc4)NC(=O)[C@H](CCCCN)NC(=O)[C@H](CCSC)NC(=O)[C@H](CO)NC(=O)[C@H](Cc4c[nH]cn4)NC(=O)[C@H](CCCCN)NC3=O)C(=O)N[C@@H](CCCNC(=N)N)C(=O)N[C@@H](CCC(=O)O)C(=O)N[C@@H]([C@@H](C)O)C(=O)N2)NC(=O)[C@H](CCCNC(=N)N)NC(=O)[C@H](CO)NC(=O)[C@H](CCCCN)NC(=O)[C@@H]2CCCN2C(=O)[C@H]([C@@H](C)CC)NC(=O)[C@H]([C@@H](C)O)NC(=O)[C@H](CC(=O)O)NC1=O` [[Lys16, Glu30]ShK] were 0.081 nM, 0.073 nM and 0.032 nM.
For `CC[C@H](C)[C@@H]1NC(=O)[C@@H](NC(=O)[C@H](CO)NC(=O)[C@@H](N)CCCNC(=N)N)CSSC[C@@H](C(N)=O)NC(=O)[C@H]([C@@H](C)O)NC(=O)CNC(=O)[C@@H]2CSSC[C@@H]3NC(=O)[C@H](CCCCN)NC(=O)[C@H](Cc4ccccc4)NC(=O)[C@H](C)NC(=O)[C@H]([C@@H](C)O)NC(=O)[C@H](CSSC[C@H](NC(=O)[C@H](Cc4ccccc4)NC(=O)[C@H](CO)NC(=O)[C@H](CC(C)C)NC(=O)[C@H](CCCNC(=N)N)NC(=O)[C@H](Cc4ccc(O)cc4)NC(=O)[C@H](CCCCN)NC(=O)[C@H](Cc4c[nH]cn4)NC(=O)[C@H](CO)NC(=O)[C@H](Cc4c[nH]cn4)NC(=O)[C@H](CCCCN)NC3=O)C(=O)N[C@@H](CCCNC(=N)N)C(=O)N[C@@H](CCCCN)C(=O)N[C@@H]([C@@H](C)O)C(=O)N2)NC(=O)[C@H](CCCNC(=N)N)NC(=O)[C@H](CO)NC(=O)[C@H](CCCCN)NC(=O)[C@@H]2CCCN2C(=O)[C@H]([C@@H](C)CC)NC(=O)[C@H]([C@@H](C)O)NC(=O)[C@H](CC(=O)O)NC1=O` [[Lys16, His21]ShK-amide], the values for the IC50 (in experiment [1]; against hKv1.3; in experiment [2]) were 9.25 nM, 0.219 nM and 5.5 nM, respectively.
`CC[C@H](C)[C@@H]1NC(=O)[C@H](CO)NC(=O)[C@H](Cc2c[nH]cn2)NC(=O)[C@H](CCCCN)NC(=O)[C@@H]2CSSC[C@@H]3NC(=O)[C@H]([C@@H](C)O)NC(=O)[C@H](CCCCN)NC(=O)[C@H](CCCNC(=N)N)NC(=O)[C@H](CSSC[C@H](NC(=O)[C@H](CCCNC(=N)N)NC(=O)[C@H](CO)NC(=O)[C@H](CCCCN)NC(=O)[C@@H]4CCCN4C(=O)[C@H]([C@@H](C)CC)NC(=O)[C@H]([C@@H](C)O)NC(=O)[C@H](CC(=O)O)NC(=O)[C@H]([C@@H](C)CC)NC(=O)[C@@H](NC(=O)[C@H](CO)NC(=O)[C@@H](N)CCCNC(=N)N)CSSC[C@@H](C(N)=O)NC(=O)[C@H]([C@@H](C)O)NC(=O)CNC3=O)C(=O)N[C@@H]([C@@H](C)O)C(=O)N[C@@H](C)C(=O)N[C@@H](Cc3ccccc3)C(=O)N[C@@H](CCCCN)C(=O)N2)NC(=O)[C@H](Cc2ccccc2)NC(=O)[C@H](CO)NC(=O)[C@H](CC(C)C)NC(=O)[C@H](CCCNC(=N)N)NC(=O)[C@H](Cc2ccc(O)cc2)NC(=O)[C@H](CCCCN)NC1=O` [[Lys16, Ile21]ShK-amide]: the results for the IC50 (in experiment [1]; against hKv1.3; in experiment [2]) were 5.77 nM, 0.14 nM and 2.49 nM, respectively.
For the compound `CC[C@H](C)[C@@H]1NC(=O)[C@@H](NC(=O)[C@H](CO)NC(=O)[C@@H](N)CCCNC(=N)N)CSSC[C@@H](C(N)=O)NC(=O)[C@H]([C@@H](C)O)NC(=O)CNC(=O)[C@@H]2CSSC[C@@H]3NC(=O)[C@H](CCCCN)NC(=O)[C@H](Cc4ccccc4)NC(=O)[C@H](C)NC(=O)[C@H]([C@@H](C)O)NC(=O)[C@H](CSSC[C@H](NC(=O)[C@H](Cc4ccccc4)NC(=O)[C@H](CO)NC(=O)[C@H](CC(C)C)NC(=O)[C@H](CCCNC(=N)N)NC(=O)[C@H](Cc4ccc(O)cc4)NC(=O)[C@H](CCCCN)NC(=O)[C@H](CC(C)C)NC(=O)[C@H](CO)NC(=O)[C@H](Cc4c[nH]cn4)NC(=O)[C@H](CCCCN)NC3=O)C(=O)N[C@@H](CCCNC(=N)N)C(=O)N[C@@H](CCCCN)C(=O)N[C@@H]([C@@H](C)O)C(=O)N2)NC(=O)[C@H](CCCNC(=N)N)NC(=O)[C@H](CO)NC(=O)[C@H](CCCCN)NC(=O)[C@@H]2CCCN2C(=O)[C@H]([C@@H](C)CC)NC(=O)[C@H]([C@@H](C)O)NC(=O)[C@H](CC(=O)O)NC1=O` [[Lys16, Leu21]ShK-amide], the IC50 is 0.636 nM in experiment [1], 0.213 nM at hKv1.3 and 0.889 nM in experiment [2].
Take `CC[C@H](C)[C@@H]1NC(=O)[C@@H](NC(=O)[C@H](CO)NC(=O)[C@@H](N)CCCNC(=N)N)CSSC[C@@H](C(=O)O)NC(=O)[C@H]([C@@H](C)O)NC(=O)CNC(=O)[C@@H]2CSSC[C@@H]3NC(=O)[C@H](CCCCN)NC(=O)[C@H](Cc4ccccc4)NC(=O)[C@H](C)NC(=O)[C@H]([C@@H](C)O)NC(=O)[C@H](CSSC[C@H](NC(=O)[C@H](Cc4ccccc4)NC(=O)[C@H](CO)NC(=O)[C@H](CC(C)C)NC(=O)[C@H](CCCNC(=N)N)NC(=O)[C@H](Cc4ccc(O)cc4)NC(=O)[C@H](CCCCN)NC(=O)[C@H](CCSC)NC(=O)[C@H](CO)NC(=O)[C@H](Cc4c[nH]cn4)NC(=O)[C@H](CCCCN)NC3=O)C(=O)N[C@@H](CCCCN)C(=O)N[C@@H](CCCCN)C(=O)N[C@@H]([C@@H](C)O)C(=O)N2)NC(=O)[C@H](CCCNC(=N)N)NC(=O)[C@H](CO)NC(=O)[C@H](CCCCN)NC(=O)[C@@H]2CCCN2C(=O)[C@H]([C@@H](C)CC)NC(=O)[C@H]([C@@H](C)O)NC(=O)[C@H](CC(=O)O)NC1=O` [[Lys16, Lys29]ShK]: the IC50 in experiment [1] is 0.143 nM; on hKv1.3 it was 0.071 nM; in experiment [2], 0.112 nM.

The values are drawn from US20120121591A1 (priority 2009, published 2012).
